# Laboratory results from patent publication US12655175B2, “C17, C20, and C21 substituted neuroactive steroids and their methods of use” (Sage Therapeutics, LLC, priority 2016, dated 2026).
# Molecular target: GABAA receptor
# Test: Steroid inhibition of [35S]-TBPS binding
# Conditions: rat brain cortical membranes, 3 nM [35S]-TBPS, in the presence of 5 mM GABA
# Description: Steroid Inhibition of TBPS Binding
# Briefly, cortices are rapidly removed following decapitation of carbon dioxide-anesthetized Sprague-Dawley rats ([…]). The cortices are homogenized in 10 volumes of ice-cold 0.32 M sucrose using a glass/teflon homogenizer and centrifuged at 1500×g for 10 min at 4° C. The resultant supernatants are centrifuged at 10,000×g for 20 min at 4° C. to obtain the P2 pellets. The P2 pellets are resuspended in 200 mM NaCl/50 mM Na—K phosphate pH 7.4 buffer and centrifuged at 10,000×g for 10 min at 4° C. This washing procedure is repeated twice and the pellets are resuspended in 10 volumes of buffer. Aliquots ([…]) of the membrane suspensions are incubated with 3 nM [^35S]-TBPS and […] aliquots of test drug dissolved in dimethyl sulfoxide (DMSO) (final 0.5%) in the presence of 5 mM GABA. The incubation is brought to a final volume of 1.0 mL with buffer. […] Following a 90 min incubation at room temp, the assays are terminated by filtration through glass fiber filters (Schleicher and Schuell No. 32) using a cell harvester (Brandel) and rinsed three times with ice-cold buffer. Filter bound radioactivity is measured by liquid scintillation spectrometry. Non-linear curve fitting of the overall data for each drug averaged for each concentration is done using Prism (GraphPad).
# Various compounds are or can be screened to determine their potential as modulators of [^35S]-TBPS binding in vitro. These assays are or can be performed in accordance with the above discussed procedures.
row,Compound,IC50 [nM]
1,C[C@@H](c1ccccc1)N(C)C(=O)[C@H]1CC[C@H]2[C@@H]3CC[C@@H]4C[C@](C)(O)CC[C@@H]4[C@H]3CC[C@]12C [Compound 21],10 to 50
2,C[C@@]1(O)CC[C@H]2[C@H](CC[C@@H]3[C@@H]2CC[C@]2(C)[C@@H](C(=O)N4CCCCCC4)CC[C@@H]32)C1 [Compound 23],100 to 500
3,C[C@@]1(O)CC[C@H]2[C@@H](CC[C@@H]3[C@@H]2CC[C@]2(C)[C@@H](C(=O)CNc4ccccc4)CC[C@@H]32)C1 [Compound 64],50 to 100
4,CCOC[C@@]1(O)CC[C@H]2[C@H](CC[C@@H]3[C@@H]2CC[C@]2(C)[C@@H](C(=O)N(C)[C@H](CC)c4ccc(F)cc4)CC[C@@H]32)C1 [Compound 56],100 to 500
5,C[C@@]1(O)CC[C@H]2[C@H](CC[C@@H]3[C@@H]2CC[C@]2(C)[C@@H](C(=O)NCc4ccccc4)CC[C@@H]32)C1 [Compound 1],50 to 100
6,CN(Cc1ccncc1)C(=O)[C@H]1CC[C@H]2[C@@H]3CC[C@@H]4C[C@](C)(O)CC[C@@H]4[C@H]3CC[C@]12C [Compound 13],100 to 500
7,CC(=O)N[C@H]1CC[C@H]2[C@@H]3CC[C@H]4C[C@](C)(O)CC[C@]4(C)[C@H]3CC[C@]12C [Compound 95],> 500
8,C[C@@]1(O)CC[C@H]2[C@H](CC[C@@H]3[C@@H]2CC[C@]2(C)[C@@H](C(=O)NC4CCCCC4)CC[C@@H]32)C1 [Compound 8],50 to 100
9,C[C@@]1(O)CC[C@@]2(C)[C@@H](CC[C@@H]3[C@@H]2CC[C@]2(C)[C@@H](NCc4ccccc4)CC[C@@H]32)C1 [Compound 92],> 500
10,C[C@H](NC(=O)[C@H]1CC[C@H]2[C@@H]3CC[C@@H]4C[C@](C)(O)CC[C@@H]4[C@H]3CC[C@]12C)c1ccccc1 [Compound 27],100 to 500
11,C[C@@]1(O)CC[C@H]2[C@H](CC[C@@H]3[C@@H]2CC[C@]2(C)[C@@H](C(=O)NCc4ccncc4)CC[C@@H]32)C1 [Compound 11],> 500
12,CCOC[C@@]1(O)CC[C@H]2[C@H](CC[C@@H]3[C@@H]2CC[C@]2(C)[C@@H](C(=O)N4CCc5ccccc5C4)CC[C@@H]32)C1 [Compound 44],50 to 100
13,C[C@@]1(O)CC[C@H]2[C@H](CC[C@@H]3[C@@H]2CC[C@]2(C)[C@@H](C(=O)Nc4ccccc4)CC[C@@H]32)C1 [Compound 3],< 10
14,CN(CC(=O)[C@H]1CC[C@H]2[C@@H]3CC[C@H]4C[C@](C)(O)CC[C@@H]4[C@H]3CC[C@]12C)c1ccccc1 [Compound 63],100 to 500
15,C[C@@]1(O)CC[C@H]2[C@H](CC[C@@H]3[C@@H]2CC[C@]2(C)[C@@H](C(=O)CNc4cccc(F)c4)CC[C@@H]32)C1 [Compound 41],< 10
16,C[C@@]1(O)CC[C@H]2[C@H](CC[C@@H]3[C@@H]2CC[C@]2(C)[C@@H](C(=O)N4CC[C@@H](c5ccccc5)C4)CC[C@@H]32)C1 [Compound 30],100 to 500
17,C[C@@H](NC(=O)[C@H]1CC[C@H]2[C@@H]3CC[C@@H]4C[C@](C)(O)CC[C@@H]4[C@H]3CC[C@]12C)c1ccccc1 [Compound 20],100 to 500
18,C[C@@]1(O)CC[C@@]2(C)[C@@H](CC[C@@H]3[C@@H]2CC[C@]2(C)[C@@H](Nc4cccc(F)c4)CC[C@@H]32)C1 [Compound 90],100 to 500
19,C[C@@]1(O)CC[C@H]2[C@H](CC[C@@H]3[C@@H]2CC[C@]2(C)[C@@H](C(=O)Nc4ccc(F)cc4C#N)CC[C@@H]32)C1 [Compound 37],10 to 50
20,COC[C@]12CC[C@](O)(C(F)(F)F)C[C@H]1CC[C@H]1[C@@H]3CC[C@H](C(=O)N(C)Cc4ccccc4)[C@@]3(C)CC[C@@H]12 [Compound 79],100 to 500
21,C[C@@]1(O)CC[C@H]2[C@H](CC[C@@H]3[C@@H]2CC[C@]2(C)[C@@H](C(=O)NCc4cccnc4)CC[C@@H]32)C1 [Compound 12],> 500
22,CN(Cc1cccnc1)C(=O)[C@H]1CC[C@H]2[C@@H]3CC[C@@H]4C[C@](C)(O)CC[C@@H]4[C@H]3CC[C@]12C [Compound 16],100 to 500
23,CO[C@H]1C[C@@]2(C)[C@@H](CC[C@@H]3[C@@H]2CC[C@]2(C)[C@@H]([N+](=O)[O-])CC[C@@H]32)C[C@@H]1O [Compound 118],10 to 50
